From ChEMBL document CHEMBL4028804, “The Necessary Nitrogen Atom: A Versatile High-Impact Design Element for Multiparameter Optimization” (J Med Chem, 2017)
pEC50, pKi: −log10 of the molar value.

How the values were obtained:
[1] = target: T1, Mu-type opioid receptor (Homo sapiens, UniProt P35372); assay: Displacement of [3H]-DAMGO from human HA-tagged mu-opioid receptor expressed in HEK293 cells after 90 mins by liquid scintillation counting analysis; assay type: cell-based
[2] = target: T1, Mu-type opioid receptor; assay: Agonist activity at human mu-opioid receptor expressed in HEK293 cells coexpressing delta6-Galphaqi4-myr assessed as induction of intracellular calcium flux after 48 hrs by FLIPR assay; assay type: functional, cell-based
[3] = target: T1, Mu-type opioid receptor; assay: Agonist activity at human mu-opioid receptor expressed in HEK293 cell membranes after 1 hr by [35S]-GTPgammaS binding assay; assay type: functional

T1 sequence (P35372 whole entry): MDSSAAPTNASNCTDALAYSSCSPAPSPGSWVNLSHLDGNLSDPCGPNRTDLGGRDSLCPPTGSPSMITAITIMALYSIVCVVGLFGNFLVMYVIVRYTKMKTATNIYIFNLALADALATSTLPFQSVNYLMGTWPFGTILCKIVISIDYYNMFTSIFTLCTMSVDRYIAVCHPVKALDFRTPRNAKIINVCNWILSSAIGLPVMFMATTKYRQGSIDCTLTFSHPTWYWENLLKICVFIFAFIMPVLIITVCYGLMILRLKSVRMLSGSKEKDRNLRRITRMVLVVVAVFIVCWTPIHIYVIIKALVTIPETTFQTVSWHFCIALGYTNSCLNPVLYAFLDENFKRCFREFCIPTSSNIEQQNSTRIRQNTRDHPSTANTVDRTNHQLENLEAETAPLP

In the case of `O=C(N[C@@H]1CC[C@@]2(O)[C@H]3Cc4ccc(O)c5c4[C@@]2(CCN3CC2CC2)[C@H]1O5)c1ccc2ccccc2c1`, the pKi [1] was 11.89, the pEC50 [2] was < 6.00 and the pEC50 [3] was 9.52.
